Each compound was assayed against T1, Nav1.7 (or SCN9A) channel; HEK cells stably transfected with hSCN9A (Homo sapiens, UniProt Q15858) (assay: Nav1.7 block, PatchXpress 7000 automated whole-cell voltage clamp, estimated IC50 (EIC50)). Conditions: PatchXpress platform; hSCN9A HEK cells held at V1/2 of inactivation; estimated IC50.
T1 construct: expressed in transfected cells
Format: cell-based

T1 sequence (Q15858 whole entry): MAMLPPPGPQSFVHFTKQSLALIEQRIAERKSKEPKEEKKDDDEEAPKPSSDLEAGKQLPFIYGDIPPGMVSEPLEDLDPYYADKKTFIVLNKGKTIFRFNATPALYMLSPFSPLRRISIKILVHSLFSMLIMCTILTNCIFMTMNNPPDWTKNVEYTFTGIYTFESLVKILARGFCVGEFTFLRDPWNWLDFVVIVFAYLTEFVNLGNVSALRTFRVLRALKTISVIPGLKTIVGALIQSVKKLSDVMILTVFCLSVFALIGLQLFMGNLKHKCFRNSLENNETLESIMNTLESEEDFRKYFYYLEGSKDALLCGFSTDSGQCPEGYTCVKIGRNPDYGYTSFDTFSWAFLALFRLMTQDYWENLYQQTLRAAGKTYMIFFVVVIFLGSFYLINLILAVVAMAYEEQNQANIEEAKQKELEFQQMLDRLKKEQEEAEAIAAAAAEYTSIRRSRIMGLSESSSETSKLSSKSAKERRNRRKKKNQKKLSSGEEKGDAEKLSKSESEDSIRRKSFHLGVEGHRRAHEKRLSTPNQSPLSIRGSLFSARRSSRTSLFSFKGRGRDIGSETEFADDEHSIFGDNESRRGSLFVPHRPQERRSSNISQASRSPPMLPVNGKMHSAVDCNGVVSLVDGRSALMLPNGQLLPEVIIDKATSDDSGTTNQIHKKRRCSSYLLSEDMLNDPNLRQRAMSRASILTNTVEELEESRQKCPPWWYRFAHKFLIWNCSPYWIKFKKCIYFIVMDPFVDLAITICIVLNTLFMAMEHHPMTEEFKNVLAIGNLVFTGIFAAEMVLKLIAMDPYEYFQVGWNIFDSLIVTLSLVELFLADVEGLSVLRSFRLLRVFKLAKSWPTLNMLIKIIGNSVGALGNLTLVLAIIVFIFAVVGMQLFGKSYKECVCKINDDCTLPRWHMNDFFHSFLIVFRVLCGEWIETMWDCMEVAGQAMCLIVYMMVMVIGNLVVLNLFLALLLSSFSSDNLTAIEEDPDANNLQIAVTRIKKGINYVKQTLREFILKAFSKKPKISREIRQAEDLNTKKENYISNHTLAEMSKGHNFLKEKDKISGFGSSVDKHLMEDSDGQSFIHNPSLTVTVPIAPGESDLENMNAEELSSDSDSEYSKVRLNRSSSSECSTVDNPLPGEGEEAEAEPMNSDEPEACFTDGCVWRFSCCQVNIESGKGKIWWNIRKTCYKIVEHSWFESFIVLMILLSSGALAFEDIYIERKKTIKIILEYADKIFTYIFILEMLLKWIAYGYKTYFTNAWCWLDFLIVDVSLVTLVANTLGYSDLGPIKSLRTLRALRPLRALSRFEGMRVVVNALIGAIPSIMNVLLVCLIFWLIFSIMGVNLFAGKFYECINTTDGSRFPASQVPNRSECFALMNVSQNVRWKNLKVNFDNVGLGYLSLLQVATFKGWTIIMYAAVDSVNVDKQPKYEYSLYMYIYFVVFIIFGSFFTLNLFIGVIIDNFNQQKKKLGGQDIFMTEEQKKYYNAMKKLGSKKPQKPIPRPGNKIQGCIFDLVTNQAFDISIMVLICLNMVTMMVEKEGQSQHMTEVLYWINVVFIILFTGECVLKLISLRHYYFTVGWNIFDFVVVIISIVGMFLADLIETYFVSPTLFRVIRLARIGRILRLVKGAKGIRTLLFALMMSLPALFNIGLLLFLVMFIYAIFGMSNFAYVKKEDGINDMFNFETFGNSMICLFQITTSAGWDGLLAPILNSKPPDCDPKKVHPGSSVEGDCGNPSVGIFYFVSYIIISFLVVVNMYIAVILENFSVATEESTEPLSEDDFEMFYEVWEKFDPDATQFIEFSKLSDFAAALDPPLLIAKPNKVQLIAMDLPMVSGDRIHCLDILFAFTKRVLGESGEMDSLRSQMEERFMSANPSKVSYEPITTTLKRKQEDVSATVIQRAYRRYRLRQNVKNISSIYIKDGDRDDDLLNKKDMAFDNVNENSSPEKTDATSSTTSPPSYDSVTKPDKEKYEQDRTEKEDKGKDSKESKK

Structure (SMILES) | IC50 [nM]
Cn1nc(Cc2ccc(Cl)cc2)cc1Oc1ccc(S(=O)(=O)Nc2nccs2)cc1F [Example 241, 4-[5-(4-chloro-benzyl)-2-methyl-2H-pyrazol-3-yloxy]-3-fluoro-N-thiazol-2-yl-benzenesulfonamide] | 1470
N#Cc1cc(S(=O)(=O)Nc2ncns2)ccc1Oc1ccc(F)cc1-c1cc(F)ccc1F [Example 33, 3-cyano-N-1,2,4-thiadiazol-5-yl-4-[(2′,5,5′-trifluorobiphenyl-2-yl)oxy]benzenesulfonamide] | 380
O=S(=O)(Nc1nccs1)c1ccc(Oc2cccc(OCc3ccccc3)c2)c(F)c1 [Example 119, 4-[3-(benzyloxy)phenoxy]-3-fluoro-N-1,3-thiazol-2-ylbenzenesulfonamide] | 17700
Cc1n[nH]cc1-c1ccccc1Oc1ccc(S(=O)(=O)Nc2nccs2)cc1C#N [Example 200, 3-cyano-4-(2-(3-methyl-1H-pyrazol-4-yl)phenoxy)-N-(thiazol-2-yl)benzenesulfonamide] | 100
O=S(=O)(Nc1nccs1)c1ccc(Oc2ccc(Cl)cc2-c2ccnn2Cc2ccccc2)c(F)c1 [Example 220, 4-(2-(1-benzyl-1H-pyrazol-5-yl)-4-chlorophenoxy)-3-fluoro-N-(thiazol-2-yl)benzenesulfonamide] | 150
O=S(=O)(Nc1nccs1)c1ccc(Oc2ccccc2-c2ccccn2)c(F)c1 [Example 131, 3-fluoro-4-(2-pyridin-2-ylphenoxy)-N-1,3-thiazol-2-ylbenzenesulfonamide] | 12100
Cn1nc(-c2ccccc2)cc1Oc1ccc(S(=O)(=O)Nc2ncns2)cc1C#N [Example 82, 3-cyano-4-[(1-methyl-3-phenyl-1H-pyrazol-5-yl)oxy]-N-1,2,4-thiadiazol-5-ylbenzenesulfonamide] | 37200

Same assay, conditions: estimated IC50; hSCN9A HEK cells, PatchXpress platform; Examples 283-814

Structure (SMILES) | IC50 [nM]
N#Cc1cc(S(=O)(=O)Nc2nccs2)ccc1Oc1ccc(I)cc1-c1ccn[nH]1 [Example 391, 3-cyano-4-[4-iodo-2-(1H-pyrazol-5-yl)phenoxy]-N-1,3-thiazol-2-ylbenzenesulfonamide] | 2.5
O=S(=O)(Nc1cscn1)c1cc(Cl)c(Oc2cc(C(F)(F)F)ccc2-c2cccc(CO)c2)cc1F [Example 663, 5-chloro-2-fluoro-4-{[3′-(hydroxymethyl)-4-(trifluoromethyl)biphenyl-2-yl]oxy}-N-1,3-thiazol-4-ylbenzenesulfonamide] | 130
CCn1nc(-c2ccc(Oc3ccc(S(=O)(=O)Nc4nccs4)cc3C#N)cc2)cc1C1CC1 [Example 372, 3-cyano-4-[4-(5-cyclopropyl-1-ethyl-1H-pyrazol-3-yl)phenoxy]-N-1,3-thiazol-2-ylbenzenesulfonamide] | 2600
N#Cc1cc(S(=O)(=O)Nc2nccs2)ccc1Oc1ccc(I)cc1-c1cn[nH]c1 [Example 696, 3-cyano-4-[4-iodo-2-(1H-pyrazol-4-yl)phenoxy]-N-1,3-thiazol-2-ylbenzenesulfonamide] | 78
Cn1nccc1-c1cc(C#N)ccc1Oc1ccc(S(=O)(=O)Nc2nccs2)cc1F [Example 721, 4-[4-Cyano-2-(1-methyl-1H-pyrazol-5-yl)phenoxy]-3-fluoro-N-1,3-thiazol-2-ylbenzenesulfonamide] | 160
CC(C)c1cc(-c2cc(C(F)(F)F)nn2C)ccc1Oc1ccc(S(=O)(=O)Nc2nccs2)cc1C#N [Example 354, 3-cyano-4-{2-isopropyl-4-[1-methyl-3-(trifluoromethyl)-1H-pyrazol-5-yl]phenoxy}-N-1,3-thiazol-2-ylbenzenesulfonamide] | 180

Same assay, conditions: estimated IC50; hSCN9A HEK cells, PatchXpress platform; Examples 815-1040

Structure (SMILES) | IC50 [nM]
Nc1cc(-c2cc(Cl)ccc2Oc2cc(F)c(S(=O)(=O)Nc3ncccn3)cc2Cl)ccn1 [Example 926, 4-[2-(2-aminopyridin-4-yl)-4-chlorophenoxy]-5-chloro-2-fluoro-N-pyrimidin-2-ylbenzenesulfonamide] | 67
O=S(=O)(Nc1ncns1)c1cnc(Oc2ccc(C(F)(F)F)cc2-c2ccnnc2)c(Cl)c1 [Example 974, 5-chloro-6-[2-pyridazin-4-yl-4-(trifluoromethyl)phenoxy]-N-1,2,4-thiadiazol-5-ylpyridine-3-sulfonamide] | 74

From patent US8541588B2, “Sulfonamide derivatives” (Pfizer Limited, priority 2009, dated 2013)
